Where a name gives a salt, the structure may show the parent alone. Read-outs that look alike come from different tables or passages of the source.
System: caudate lesioned mouse
Assay: caudate lesioned mouse test (anti-parkinson activity)
Assay type: in vivo
Conditions: for responders at 132 µmol/kg / responders at 208 µmol/kg / responders at 26 µmol/kg / responders at 94 µmol/kg / responders at 6.5 µmol/kg / responders at 1.6 µmol/kg / responders at 3.2 µmol/kg / responders at 6 µmol/kg: Mus musculus; for responders at 132 µmol/kg: dose 0.132 m. mole/kg; for responders at 208 µmol/kg: dose 0.208 m. mole/kg; for ED50: caudate lesioned mouse, read-out: ED50; for responders at 26 µmol/kg: dose 0.026 m. mole/kg; for responders at 94 µmol/kg: dose 0.094 m. mole/kg; for responders at 6.5 µmol/kg: dose 0.0065 m. mole/kg; for responders at 1.6 µmol/kg: dose 0.0016 m. mole/kg; for responders at 3.2 µmol/kg: dose 0.0032 m. mole/kg; for responders at 6 µmol/kg: dose 0.006 m. mole/kg
Protocol: An index of anti-parkinson activity was determined using the caudate lesioned mouse test described by Lotti, Life Sci., 10, 781-789 (1971). The mice having unilateral lesions of the caudate nucleus prepared according to the method of Lotti supra were observed immediately after the surgical procedure for strong postural asymmetries directed to the same side as the lesion. When this asymmetry was not observed, the mice were discarded. Operated mice were allowed at least 14 days to recover prior to drug testing. The lesioned mice were tested with apomorphine using 1.7 mg./kg. of base administered intraperitoneally in a 1% suspension in gum tragacanth. […] Only those mice which twisted or circled toward the lesioned side in all three test periods after the apomorphine injection were retained for further drug testing. The test drugs were all administered in 1% gum tragacanth suspension in a volume of 0.1 ml./10 g. of body weight. Doses were expressed in mg./kg. of free base.
Results of tests in the caudate lesioned mouse test described above which were obtained on the compounds of the invention are given in the table below identified, in each case, by the example numbers above where their preparations are described. Corresponding data for reference apomorphine diesters described in German patent application No. 2,154,162 are given in a side-by-side relationship for a number of the species. The reference compounds, designated Ref. 1, Ref. 1B, Ref. 1C, Ref. 1D, Ref. 1E, Ref. 1F, Ref. 2 and Ref. 2A correspond, respectively, to the compounds of the invention identified by Examples 1, 1B, 1C, 1D, 1E, 1F, 2 and 2A and differ from the latter only in having a methyl group on the apomorphine nitrogen from instead of an n-propyl group as present in the instant compounds.

[1] = 0.5 h, 1/2 h post-drug, read-out: No. Mice Affected/No. Mice Tested, 1/2 h (converted)
[2] = 1 h post-drug, read-out: No. Mice Affected/No. Mice Tested, 1 h (converted)
[3] = 4 h post-drug, read-out: No. Mice Affected/No. Mice Tested, 4 h (converted)
[4] = 6 h post-drug, read-out: No. Mice Affected/No. Mice Tested, 6 h (converted)
[5] = 24 h post-drug, read-out: No. Mice Affected/No. Mice Tested, 24 h (converted)
[6] = total, read-out: No. Mice Affected/No. Mice Tested, Total (converted)
[7] = 1 h post-drug, read-out: No. Mice Affected/No. Mice Tested, 1 h
[8] = 2 h post-drug, read-out: No. Mice Affected/No. Mice Tested, 2 h (converted)
[9] = 24 h post-drug, read-out: No. Mice Affected/No. Mice Tested, 24 h
[10] = 0.5 h, 1/2 h post-drug, read-out: No. Mice Affected/No. Mice Tested, 1/2 h
[11] = 2 h post-drug, read-out: No. Mice Affected/No. Mice Tested, 2 h
[12] = 4 h post-drug, read-out: No. Mice Affected/No. Mice Tested, 4 h
[13] = 6 h post-drug, read-out: No. Mice Affected/No. Mice Tested, 6 h
[14] = total, read-out: No. Mice Affected/No. Mice Tested, Total

CCCN1CCc2cccc3c2C1Cc1ccc(OC(=O)c2ccc(Cl)cc2)c(OC(=O)c2ccc(Cl)cc2)c1-3 (stereo not shown) [Ex. 1F, N-Propylnorapomorphine bis-4-chlorobenzoate]
responders at 132 µmol/kg [1]: 0%
responders at 208 µmol/kg [1]: 33.3%
responders at 132 µmol/kg [2]: 25%
responders at 132 µmol/kg [3]: 0%
responders at 132 µmol/kg [4]: 25%
responders at 132 µmol/kg [5]: 0%
responders at 132 µmol/kg [6]: 25%
responders at 208 µmol/kg [7]: 0%
responders at 208 µmol/kg [3]: 66.7%
responders at 208 µmol/kg [4]: 100%
responders at 208 µmol/kg [5]: 33.3%
responders at 208 µmol/kg [6]: 100%
Molar Potency Ratio Claimed/Ref. Ester (claimed N-propyl ester vs corresponding N-methyl reference ester): ≥ 3

CCCN1CCc2cccc3c2C1Cc1ccc(OC(=O)c2ccccc2C)c(OC(=O)c2ccccc2C)c1-3 (stereo not shown) [Ex. 1G, N-Propylnorapomorphine bis-2-methylbenzoate]
ED50: 26 µmol/kg
responders at 26 µmol/kg [1]: 25%
responders at 26 µmol/kg [2]: 50%
responders at 26 µmol/kg [8]: 50%
responders at 26 µmol/kg [3]: 50%
responders at 26 µmol/kg [4]: 50%
responders at 26 µmol/kg [9]: 0%
responders at 26 µmol/kg [6]: 50%

CCCN1CCc2cccc3c2C1Cc1ccc(OC(=O)c2ccc(C)cc2)c(OC(=O)c2ccc(C)cc2)c1-3 (stereo not shown) [Ex. 1H, N-Propylnorapomorphine bis-4-methylbenzoate]
ED50: 70 µmol/kg
responders at 26 µmol/kg [1]: 0%
responders at 94 µmol/kg [1]: 100%
responders at 26 µmol/kg [2]: 0%
responders at 26 µmol/kg [8]: 0%
responders at 26 µmol/kg [3]: 0%
responders at 26 µmol/kg [4]: 0%
responders at 26 µmol/kg [9]: 0%
responders at 26 µmol/kg [6]: 0%
responders at 94 µmol/kg [2]: 75%
responders at 94 µmol/kg [8]: 75%
responders at 94 µmol/kg [3]: 75%
responders at 94 µmol/kg [4]: 75%
responders at 94 µmol/kg [5]: 75%
responders at 94 µmol/kg [6]: 100%

CCCN1CCc2cccc3c2C1Cc1ccc(OC(=O)c2ccc(OC)cc2)c(OC(=O)c2ccc(OC)cc2)c1-3 (stereo not shown) [Ex. 1J, N-Propylnorapomorphine bis-4-methoxybenzoate]
ED50: 13 µmol/kg
responders at 6.5 µmol/kg [10]: 0%
responders at 26 µmol/kg [1]: 50%
responders at 6.5 µmol/kg [7]: 0%
responders at 6.5 µmol/kg [11]: 0%
responders at 6.5 µmol/kg [12]: 0%
responders at 6.5 µmol/kg [13]: 0%
responders at 6.5 µmol/kg [9]: 0%
responders at 6.5 µmol/kg [14]: 0%
responders at 26 µmol/kg [2]: 100%
responders at 26 µmol/kg [8]: 75%
responders at 26 µmol/kg [3]: 50%
responders at 26 µmol/kg [4]: 50%
responders at 26 µmol/kg [9]: 0%
responders at 26 µmol/kg [6]: 100%

CCCN1CCc2cccc3c2C1Cc1ccc(OC(=O)c2cc(OC)cc(OC)c2)c(OC(=O)c2cc(OC)cc(OC)c2)c1-3 (stereo not shown) [Ex. 1K, N-Propylnorapomorphine bis-3,5-dimethoxybenzoate hydrochloride]
responders at 1.6 µmol/kg [10]: 0%
responders at 3.2 µmol/kg [10]: 0%
responders at 6 µmol/kg [10]: 0%
responders at 26 µmol/kg [1]: 50%
responders at 1.6 µmol/kg [7]: 0%
responders at 1.6 µmol/kg [11]: 0%
responders at 1.6 µmol/kg [12]: 0%
responders at 1.6 µmol/kg [13]: 0%
responders at 1.6 µmol/kg [9]: 0%
responders at 1.6 µmol/kg [14]: 0%
responders at 3.2 µmol/kg [2]: 25%
responders at 3.2 µmol/kg [8]: 50%
responders at 3.2 µmol/kg [3]: 50%
responders at 3.2 µmol/kg [13]: 0%
responders at 3.2 µmol/kg [9]: 0%
responders at 3.2 µmol/kg [6]: 50%
responders at 6 µmol/kg [7]: 0%
responders at 6 µmol/kg [8]: 75%
responders at 6 µmol/kg [3]: 75%
responders at 6 µmol/kg [4]: 50%
responders at 6 µmol/kg [9]: 0%
responders at 6 µmol/kg [6]: 75%
responders at 26 µmol/kg [2]: 100%
responders at 26 µmol/kg [8]: 50%
responders at 26 µmol/kg [3]: 50%
responders at 26 µmol/kg [4]: 50%
responders at 26 µmol/kg [9]: 0%
responders at 26 µmol/kg [6]: 100%

Source: patent US4126616A, “N-propylnorapomorphine diesters” (Hinshaw; William B., priority 1976, dated 1978)
